# Data as given in patent US20070197556A1, “Fungicidal Mixtures” (priority 2004, published 2007).
# Tested on: Pyrenophora teres
# Experiment: activity against net blotch of barley caused by Pyrenophora teres, 1 day protective application
# Assay type: in vivo
# Conditions: individual active compound, 5 ppm in the spray liquor, barley seedlings cultivar Hanna, assessed after 6 days
# Description: The active compounds were prepared separately as a stock solution comprising 25 mg of active compound which was made up to 10 ml using a mixture of acetone and/or DMSO and the emulsifier Uniperol® EL (wetting agent having emulsifying and dispersing action based on ethoxylated alkylphenols) in a volume ratio solvent:emulsifier of 99:1. The mixture was then made up with water to 100 ml. The active compounds or mixtures were mixed or diluted with water to the desired concentration.
# Use example—activity against net blotch of barley caused by Pyrenophora teres, 1 day protective application
# Leaves of potted barley seedlings of the cultivar “Hanna” were sprayed to runoff point with an aqueous suspension having the concentration of active compound stated below. 24 hours after the spray coating had dried on, the test plants were inoculated blotch pathogen. […] After 6 days, the extent of the development of the disease was determined visually in % infection of the entire leaf area.
# The visually determined values for the percentages of infected leaf areas were converted into efficacies in % of the untreated control:
# The efficacy (E) is calculated as follows using Abbot's formula: E=(1−α/β)·100 • α corresponds to the fungal infection of the treated plants in % and • β corresponds to the fungal infection of the untreated (control) plants in % […]
compound,measurement,value
"CC1CCN(c2c(-c3c(F)cc(F)cc3F)c(Cl)nc3ncnn23)CC1 [I, 5-chloro-7-(4-methylpiperidin-1-yl)-6-(2,4,6-trifluorophenyl)[1,2,4]tri-azolo[1,5-a]pyrimidine]",Efficacy in % of the untreated control,72%
